The values that follow come from paper PMC7756782, “Rational Design of Azastatin as a Potential ADC Payload with Reduced Bystander Killing” (Chemmedchem, 2020).

Structures can show the parent of a compound that is named as a salt. Non-standard residues stand in square brackets, D forms with d. Residues, ends and D or L forms follow the SMILES beside them. Dolaproine = CO[C@@H]([C@@H]1CCCN1)[C@@H](C)C(=O)O; Dil = CC[C@H](C)[C@H](NC)[C@@H](CC(=O)O)OC; NMeV = CN[C@H](C(=O)O)C(C)C

In one experiment the test system is HepG2 cells. As to the kind of experiment: cells. It counts as cell-based, human. Particulars: FMCA, 72 h incubation, 37 °C, 384-well, 1000 cells/well, mean and 95 % confidence interval, three independent experiments. The protocol:
(§1) Three fundamentally different cell lines were chosen for the assessment of cytotoxicity: HepG2 cells, which derive from a human hepatoblastoma; ^[43] HCT116 cells, a common model for the study of metastatic colorectal carcinoma;[ ^44 , ^45 ] and RPMI 8226 cells, which originate from multiple myeloma. ^[46]
(§2) The cells, upon overnight cultivation, were treated with MMAE (5), MMAF (6), azastatin‐OMe (7), N‐ethyl azastatin‐OMe (28), N‐Cbz azastatin‐OMe (27) or doxorubicin[ ^47 , ^48 ] at concentrations ranging from 100 μM to 10 pM and after 72 hours of incubation, the survival index relative to control was determined by The Fluorometric Microculture Cytotoxicity Assay (FMCA). ^[49] Based upon the concentration dependent proportion of surviving cells, the half maximal inhibitory concentration (IC50) of each compound was calculated (see Table 1).
(§3) MMAE and MMAF were purchased from Combi‐Blocks (US). Doxorubicin hydrochloride was obtained from Sigma‐Aldrich/Merck (Germany). HepG2 cells (human hepatocellular carcinoma cells, ATCC), were grown in Eagle's Minimum Essential Medium (ATCC). RPMI 8226 (multiple myeloma cells, ATCC) were grown in complete RPMI medium (ATCC). HCT116 cells (colon carcinoma cells, Anticancer Inc.) were cultured in McCoy′s 5 A Modified Medium (Sigma‐Aldrich). All media were supplemented with 10 % foetal bovine serum, penicillin/streptomycin (100 U/100 μg/mL) and 2 mM L‐glutamine. Cells were seeded in 384‐well assay plates at a density of 1000 cells/well. The cells were incubated over night at 37 °C and test compounds were added, followed incubation for an additional 72 h at 37 °C. The fraction of surviving cells was analysed by a fluorometric microculture cytotoxicity assay, based on hydrolysis of fluorescein diacetate to fluorescein by cells with intact plasma membranes, as recently described. ^[49] IC50‐values were calculated from three independent experiments (see SI, mean±SEM). All tested concentrations were assessed in multiple wells (n=2‐4) in each experiment. The IC50‐values were determined with nonlinear regression analysis using GraphPad Prism 8 Software Package (US).

Another experiment relates to HCT116 cells. As to the kind of experiment: cells. It counts as cell-based. Particulars: FMCA, 72 h incubation, 37 °C, 384-well, 1000 cells/well, mean and 95 % confidence interval, three independent experiments. The protocol:
as §1, §2, §3

The next experiment has as its system RPMI 8226 cells. As to the kind of experiment: cells. It counts as cell-based. Particulars: FMCA, 72 h incubation, 37 °C, 384-well, 1000 cells/well, mean and 95 % confidence interval, three independent experiments. The method, then: as §1, §2, §3
Experiment [1] concerns HepG2, HCT116 and RPMI 8226 cells. As to the kind of experiment: FMCA cytotoxicity, span over all three tested cell lines. The class given is cell-based. To be noted: 72 h; for IC50: lowest to highest mean IC50 in HepG2, HCT116, RPMI 8226, read-out: IC50 range over the three cell lines. The method, then:
as §1, §2, §3

Turning to `CC[C@H](C)[C@@H]([C@@H](CC(=O)N1C[C@@H](NC(=O)OCc2ccccc2)C[C@H]1[C@H](OC)[C@@H](C)C(=O)N[C@@H](Cc1ccccc1)C(=O)OC)OC)N(C)C(=O)[C@@H](NC(=O)[C@H](C(C)C)N(C)C)C(C)C` [Cbz‐Aza‐OMe, 27, Cbz‐azastatin methyl ester], the IC50 (usually the concentration at which inhibition is half-maximal) with HepG2 cells was 0.00013 µM; in the experiment with HCT116 cells it was 0.003 µM; in the experiment with RPMI 8226 cells, 0.00015 µM; in experiment [1] it was 0.00013 to 0.003 µM.
As for `CC[C@H](C)[C@@H]([C@@H](CC(=O)N1CCC[C@H]1[C@H](OC)[C@@H](C)C(=O)N[C@@H](Cc1ccccc1)C(=O)O)OC)N(C)C(=O)[C@@H](NC(=O)[C@@H](NC)C(C)C)C(C)C` [MMAF, 6, monomethylauristatin F, reference compound] (H-[NMeV]V[Dil][Dolaproine]F-OH), the “fold less potent than MMAE (5) in each of the cell lines” value in experiment [1] (ratio of IC50 values) is “more than 100 fold”.
For `COc1cccc2c1C(=O)c1c(O)c3c(c(O)c1C2=O)C[C@@](O)(C(=O)CO)C[C@@H]3O[C@H]1C[C@H](N)[C@H](O)[C@H](C)O1` [Doxorubicin, Doxorubicin hydrochloride, reference compound], the IC50 was 0.4 µM in the experiment on HepG2 cells (Homo sapiens, HepG2); 0.44 µM with HCT116 cells (Homo sapiens, HCT-116); 0.049 µM in the experiment on RPMI 8226 cells (Homo sapiens, RPMI-8226).
On to `CC[C@H](C)[C@@H]([C@@H](CC(=O)N1C[C@@H](N)C[C@H]1[C@H](OC)[C@@H](C)C(=O)N[C@@H](Cc1ccccc1)C(=O)OC)OC)N(C)C(=O)[C@@H](NC(=O)[C@H](C(C)C)N(C)C)C(C)C` [Aza‐OMe, 7, Azastatin methyl ester], for which the IC50 with HepG2 cells is 0.02 µM; with HCT116 cells, 0.17 µM; in the experiment on RPMI 8226 cells, 0.0098 µM; in experiment [1], 0.0098 to 0.17 µM.
For the compound `CCN[C@H]1C[C@@H]([C@H](OC)[C@@H](C)C(=O)N[C@@H](Cc2ccccc2)C(=O)OC)N(C(=O)C[C@@H](OC)[C@H]([C@@H](C)CC)N(C)C(=O)[C@@H](NC(=O)[C@H](C(C)C)N(C)C)C(C)C)C1` [N‐Et Aza‐OMe, 28, N‐ethyl azastatin methyl ester], the IC50 with HepG2 cells was 0.011 µM; with HCT116 cells, 0.1 µM; in the experiment with RPMI 8226 cells, 0.0048 µM; in experiment [1] it was 0.0048 to 0.1 µM.
